Measurements as given in patent publication US20080145313A1, “Compositions and Methods for the Treatment and Prevention of Neoplastic Disorders” (Genesis Research & Development Corporation Limited, priority 2006, published 2008).

The substances below were run on A549 cells (assay: Growth inhibition of siRNA-transfected A549 cells, SYBR Green I DNA content). Conditions: 10 nM siRNA; DNA content 96 hours after transfection.
Assay type: cell-based, human
Summary of the method: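 Growth read-out: cellular DNA quantified with SYBR Green I (485/535 nm) 96 h after transfection, cells frozen, thawed and lysed in PBS/1% Triton X-100, pH 7. Cells (A549, 5×10^3 cells/cm^2) received 10 nM siRNA by RNAiMAX; non-specific siRNA served as control; triplicate wells averaged.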
For “SEQ ID NO: 4986: siRNA targeting DCK (chain 1 ACGATCTGTGTATAGTGACAGGTAT; chain 2 ACGAUCUGUGUAUAGUGACAGGUAU; Both strands are one antisense strand in DNA/RNA notation, chemistry not given here, further chemistry not given here; one strand in two spellings)”, the “Growth Inhibition in A549 cells” value was “− (no growth inhibition with any siRNA)”. For “SEQ ID NO: 4987: siRNA targeting DCK (chain 1 CAAGACTGGCATGACTGGATGAATA; chain 2 CAAGACUGGCAUGACUGGAUGAAUA; Both strands are one antisense strand in DNA/RNA notation, chemistry not given here, further chemistry not given here; one strand in two spellings)”, the “Growth Inhibition in A549 cells” value was “− (no growth inhibition with any siRNA)”. “SEQ ID NO: 4988: siRNA targeting DCK (chain 1 GCAAGGCATTCCTCTTGAATATTTA; chain 2 GCAAGGCAUUCCUCUUGAAUAUUUA; Both strands are one antisense strand in DNA/RNA notation, chemistry not given here, further chemistry not given here; one strand in two spellings)” was tested, and the “Growth Inhibition in A549 cells” value was “− (no growth inhibition with any siRNA)”.

Same assay, conditions: A549 cells, 10 nM siRNA, DNA content 96 hours after transfection, transporter gene targets
In the case of “SEQ ID NO: 4943: siRNA targeting ATP2B3 (PMCA3) (chain 1 AAACGTCTCAATCACAAAGTAGAGG; chain 2 AAACGUCUCAAUCACAAAGUAGAGG; chemistry not given here; one strand in two spellings)”, the “Growth Inhibition in A549 cells by 10 nM siRNA” value is reported as “− (no growth inhibition)”. In the case of “SEQ ID NO: 4944: siRNA targeting ATP2B3 (PMCA3) (chain 1 AAAGCTTGTCTTCCGGGATCTGCTC; chain 2 AAAGCUUGUCUUCCGGGAUCUGCUC; chemistry not given here; one strand in two spellings)”, the “Growth Inhibition in A549 cells by 10 nM siRNA” value is reported as “− (no growth inhibition)”. In the case of “SEQ ID NO: 4945: siRNA targeting ATP2B3 (PMCA3) (chain 1 AATGTGTCCATGATCAAGTTCACCC; chain 2 AAUGUGUCCAUGAUCAAGUUCACCC; chemistry not given here; one strand in two spellings)”, the “Growth Inhibition in A549 cells by 10 nM siRNA” value is reported as “+ (inhibits by at least 50%)”. For “SEQ ID NO: 4949: siRNA targeting ATP6V1A (chain 1 TATAAATAGAGGCTTCTCTAGCAGC; chain 2 UAUAAAUAGAGGCUUCUCUAGCAGC; chemistry not given here; one strand in two spellings)”, the “Growth Inhibition in A549 cells by 10 nM siRNA” value was “− (no growth inhibition)”. With “SEQ ID NO: 4950: siRNA targeting ATP6V1A (chain 1 TTTCATGGAGGAAAGTTTATAGAGG; chain 2 UUUCAUGGAGGAAAGUUUAUAGAGG; chemistry not given here; one strand in two spellings)” the “Growth Inhibition in A549 cells by 10 nM siRNA” value was “− (no growth inhibition)”. For “SEQ ID NO: 4951: siRNA targeting ATP6V1A (chain 1 AAATGGCTCCCATAATGCCAGGACC; chain 2 AAAUGGCUCCCAUAAUGCCAGGACC; chemistry not given here; one strand in two spellings)”, the “Growth Inhibition in A549 cells by 10 nM siRNA” value was “+ (inhibits by at least 50%)”. With “SEQ ID NO: 4979: siRNA targeting ABCB1 (MDR1) (chain 1 TAATTATTCCTGTCCCAAGATTTGC; chain 2 UAAUUAUUCCUGUCCCAAGAUUUGC; chemistry not given here; one strand in two spellings)” the “Growth Inhibition in A549 cells by 10 nM siRNA” value was “− (no growth inhibition)”. In the case of “SEQ ID NO: 4980: siRNA targeting ABCB1 (MDR1) (chain 1 TTCACCAAATGTGACATTTCCTTCC; chain 2 UUCACCAAAUGUGACAUUUCCUUCC; chemistry not given here; one strand in two spellings)”, the “Growth Inhibition in A549 cells by 10 nM siRNA” value is reported as “− (no growth inhibition)”.
